Values joined by “and” are separate entries in the source; they are usually repeats but may differ in a detail not shown here. Identical values can stand only once.
Key:
Type in all cases: cell-based
HepG2 cells = assay: MTT assay for cell proliferation and cytotoxicity, HepG2; parameters: key to Inhibitory rate: inhibition rate = 1 - mean A490 sample/mean A490 control (fraction); conditions: for IC50: HepG2, 48 h, MTT; for Inhibitory rate / ODtreated/ODcontrol: HepG2, fraction, per experiment; for Inhibition rate (16μM), 48 h, HepG2: preliminary screening, HepG2, 16 μM, mean±SD, unit not given
Experimental: (§1) HepG2, HeLa, MCF-7, and KYSE-30 cells were grown in a humidified incubator at 37°C with 5% CO2 in DMEM supplemented with 10% fetal bovine serum (FBS), […] streptomycin, and 100 U/mL penicillin.
(§2) When HepG2 cells reached 80% confluence, they were treated with 1 mL of trypsin and resuspended at a density of 10^5 cells/mL. Then, 100 μL of cell suspension was seeded into each well of a 96-well plate and incubated in a humidified atmosphere. The different concentrations of KJ-5 and KJ-12 (0, 1, 2, 4, 8, 16, and 32 μM) were added to each well, and the cells were further incubated for 48 h. Afterward, 20 μL of the MTT solution (5 mg/mL) was added to each well, and incubation was continued for another 4 h. The supernatant was discarded, and 200 μL of the DMSO solution was added to each well. The plate was shaken for 10 min in the dark. The absorbance values were measured at 490 nm using an enzyme-linked detector. The cell inhibition rate (%) was calculated using the following formula: (1-Mean A490 sample/Mean A490 control) × 100%.

HeLa cells = assay: MTT assay for cell proliferation, HeLa; parameters: key to Inhibitory rate: inhibition rate = 1 - mean A490 sample/mean A490 control (fraction); conditions: Hela; for Inhibitory rate / ODtreated/ODcontrol: fraction, per experiment; for Inhibition rate (16μM), 48 h, Hela: preliminary screening, mean±SD, unit not given
Experimental: as §1, §2

MCF-7 cells = assay: MTT assay for cell proliferation, MCF-7; parameters: key to Inhibitory rate / Inhibition rate: inhibition rate = 1 - mean A490 sample/mean A490 control (fraction); conditions: for Inhibition rate (16μM), 48 h, MCF-7: preliminary screening, MCF-7, 16 μM, mean±SD, unit not given
Experimental: as §1, §2

KYSE-30 cells = assay: MTT assay for cell proliferation, KYSE-30; parameters: key to Inhibitory rate: inhibition rate = 1 - mean A490 sample/mean A490 control (fraction); conditions: for Inhibitory rate: KYSE-30, given as fraction; for Inhibition rate (16μM), 48 h, KYSE-30: preliminary screening, KYSE-30, 16 μM, mean±SD, unit not given
Experimental: as §1, §2

[1] = MCF-7, fraction, per experiment
[2] = given as fraction, second of three experiments
[3] = given as fraction, third of three experiments
[4] = KYSE-30, first of three experiments
[5] = KYSE-30, second of three experiments
[6] = KYSE-30, third of three experiments

Compound	IC50 (HepG2 cells) [µM]	Inhibitory rate (HepG2 cells)	ODtreated/ODcontrol (HepG2 cells)	Inhibition rate (16μM), 48 h, HepG2 (HepG2 cells)	Inhibitory rate (HeLa cells)	ODtreated/ODcontrol (HeLa cells)	Inhibition rate (16μM), 48 h, Hela (HeLa cells)	Inhibitory rate (MCF-7 cells; [1])	ODtreated/ODcontrol (MCF-7 cells; [1])	Inhibitory rate (MCF-7 cells; [2])	Inhibition rate (MCF-7 cells; [3])	Inhibition rate (16μM), 48 h, MCF-7 (MCF-7 cells)	ODtreated/ODcontrol (MCF-7 cells; second of three experiments)	ODtreated/ODcontrol (MCF-7 cells; third of three experiments)	ODtreated/ODcontrol (KYSE-30 cells; [4])	Inhibitory rate (KYSE-30 cells; first of three experiments)	Inhibitory rate (KYSE-30 cells; second of three experiments)	Inhibitory rate (KYSE-30 cells; third of three experiments)	ODtreated/ODcontrol (KYSE-30 cells; [5])	ODtreated/ODcontrol (KYSE-30 cells; [6])	further results
COc1c2n(cc(C(=O)Nc3cccc(-c4cn(-c5ccccc5I)nn4)c3)c1=O)CC1OCC(C)N1C2=O (stereo not shown) [KJ-15]	41.8 ± 1.22	0.3617 and 0.3472 and 0.3578	0.6383 and 0.6528 and 0.6422	35.56±0.75	0.2424 and 0.3317 and 0.2684	0.7576 and 0.6683 and 0.7316	28.08±4.59	0.3627	0.6373	0.3633	0.3314	35.25±1.83	0.6367	0.6686	0.5987	0.4013	0.4302	0.3963	0.5698	0.6037	Inhibition rate (16μM), 48 h, KYSE-30 (KYSE-30 cells): 40.93±1.83
COc1c2n(cc(C(=O)Nc3cccc(-c4cn(-c5ccc(C(F)(F)F)cc5)nn4)c3)c1=O)C[C@H]1OC[C@H](C)N1C2=O [KJ-10]	> 50	0.3299 and 0.3414 and 0.3063	0.6701 and 0.6586 and 0.6937	32.59±1.79	0.353 and 0.3445 and 0.3223	0.647 and 0.6555 and 0.6777	33.99±1.59	0.366	0.634	0.3141	0.2908	33.36±3.87	0.6859	0.7092	0.6507	0.3493	0.2142	0.2217	0.7858	0.7783	Inhibition rate (16μM), 48 h, KYSE-30 (KYSE-30 cells): 26.17±7.59
COc1c2n(cc(C(=O)Nc3cccc(-c4cn(-c5cccc(C(F)(F)F)c5)nn4)c3)c1=O)C[C@H]1OC[C@H](C)N1C2=O [KJ-8]	9.41 ± 1.3	0.6351 and 0.626 and 0.6586	0.3649 and 0.374 and 0.3414	63.99±1.68	0.6574 and 0.6919 and 0.6249	0.3426 and 0.3081 and 0.3751	65.81±3.35	0.6331	0.3669	0.5745	0.558	58.85±3.95	0.4255	0.442	0.3962	0.6038	0.6049	0.5814	0.3951	0.4186	Inhibition rate (16μM), 48 h, KYSE-30 (KYSE-30 cells): 59.67±1.33
COc1c2n(cc(C(=O)Nc3cccc(-c4cn(-c5cccc(Br)c5)nn4)c3)c1=O)CC1OCC(C)N1C2=O (stereo not shown) [KJ-18]	6.57 ± 1.45	0.7113 and 0.6793 and 0.7366	0.2887 and 0.3207 and 0.2634	70.90±2.87	0.6347 and 0.6562 and 0.6485	0.3653 and 0.3438 and 0.3515	64.65±1.09	0.5861	0.4139	0.5487	0.6055	58.01±2.89	0.4513	0.3945	0.385	0.615	0.5247	0.5847	0.4753	0.4153	Inhibition rate (16μM), 48 h, KYSE-30 (KYSE-30 cells): 57.48±4.60
C[C@H]1CO[C@@H]2Cn3cc(C(=O)NCc4ccc(F)cc4F)c(=O)c(O)c3C(=O)N12 [Cabotegravir]	–	–	–	–	–	–	–	–	–	–	–	–	–	–	–	–	–	–	–	–	IC50 (HepG2 cells; Homo sapiens): > 50 µM
COc1ccccc1-n1cc(-c2cccc(NC(=O)c3cn4c(c(OC)c3=O)C(=O)N3[C@@H](C)CO[C@@H]3C4)c2)nn1 [KJ-7]	21.7 ± 1.07	0.4068 and 0.4092 and 0.416	0.5932 and 0.5908 and 0.584	41.07±0.48	0.3847 and 0.3789 and 0.3067	0.6153 and 0.6211 and 0.6933	35.68±4.35	0.4361	0.5639	0.4406	0.3594	41.2±4.56	0.5594	0.6406	0.5159	0.4841	0.4213	0.4377	0.5787	0.5623	Inhibition rate (16μM), 48 h, KYSE-30 (KYSE-30 cells): 44.77±3.26
COc1c2n(cc(C(=O)Nc3cccc(-c4cn(-c5ccccc5Cl)nn4)c3)c1=O)CC1OCC(C)N1C2=O (stereo not shown) [KJ-19]	7.5 ± 1.19	0.7209 and 0.735 and 0.7422	0.2791 and 0.265 and 0.2578	73.27±1.09	0.6257 and 0.6335 and 0.6346	0.3743 and 0.3665 and 0.3654	63.13±0.49	0.5839	0.4161	0.531	0.6163	57.71±4.31	0.469	0.3837	0.43	0.57	0.5211	0.5717	0.4789	0.4283	Inhibition rate (16μM), 48 h, KYSE-30 (KYSE-30 cells): 55.43±2.87

— paper PMC10590056, “Design and synthesis of cabotegravir derivatives bearing 1,2,3-triazole and evaluation of anti-liver cancer activity” (Frontiers in Pharmacology, 2023)
